Columns and labels:
Format in all cases: in vivo
[1] = system: IPOHE: ivyleaf morningglory (Ipomoea hederacea); test: Post-emergent herbicidal test, ivyleaf morningglory; details: post-emergence, 336 h, 14 days after application, read-out: Visual Growth Reduction (%) 14 Days After Application IPOHE
Outline: (§1)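 Scores reflect visual injury (0–100%) at 14 d post-spray on young plants treated at the 1st/2nd true leaf stage. Greenhouse held at about 23-29° C day and 22-28° C night; spray volume 187 L/ha, with solvent-blank controls.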

[2] = system: CYPES: yellow nutsedge (Cyperus esculentus); test: Post-emergent herbicidal test, yellow nutsedge; details: post-emergence, 336 h, 14 days after application, read-out: Visual Growth Reduction (%) 14 Days After Application CYPES
Outline: as §1

[3] = system: ABUTH: velvetleaf (Abutilon theophrasti); test: Post-emergent herbicidal test, velvetleaf; details: post-emergence, 336 h, 14 days after application, read-out: Visual Growth Reduction (%) 14 Days After Application ABUTH
Outline: as §1

[4] = system: CIRAR: Canada thistle (Cirsium arvense); test: Post-emergent herbicidal test, Canada thistle; details: post-emergence, 336 h, 14 days after application, read-out: Visual Growth Reduction (%) 14 Days After Application CIRAR
Outline: as §1

[5] = system: ECHCG: barnyardgrass (Echinochloa crus-galli); test: Post-emergent herbicidal test, barnyardgrass; details: post-emergence, 336 h, 14 days after application, read-out: Visual Growth Reduction (%) 14 Days After Application ECHCG
Outline: as §1

[6] = system: SORVU: shattercane (Sorghum bicolor); test: Post-emergent herbicidal test, shattercane; details: post-emergence, 336 h, 14 days after application, read-out: Visual Growth Reduction (%) 14 Days After Application SORVU
Outline: as §1

[7] = system: VIOTR: wild violet (Viola tricolor); test: Post-emergent herbicidal test, wild violet; details: post-emergence, 336 h, 14 days after application, read-out: Visual Growth Reduction (%) 14 Days After Application VIOTR
Outline: as §1

[8] = system: DIGSA: large crabgrass (Digitaria sanguinalis); test: Post-emergent herbicidal test, large crabgrass; details: post-emergence, 336 h, 14 days after application, read-out: Visual Growth Reduction (%) 14 Days After Application DIGSA
Outline: as §1

[9] = system: EPHHL: wild poinsettia (Euphorbia heterophylla); test: Post-emergent herbicidal test, wild poinsettia; details: post-emergence, 336 h, 14 days after application, read-out: Visual Growth Reduction (%) 14 Days After Application EPHHL
Outline: as §1

[10] = system: SETFA: giant foxtail (Setaria faberi); test: Post-emergent herbicidal test, giant foxtail; details: post-emergence, 336 h, 14 days after application, read-out: Visual Growth Reduction (%) 14 Days After Application SETFA
Outline: as §1

[11] = system: BRSNN: oilseed rape, canola (Brassica napus); test: Post-emergent herbicidal test, oilseed rape; details: post-emergence, 336 h, 14 days after application, read-out: Visual Growth Reduction (%) 14 Days After Application BRSNN
Outline: as §1

SMILES: COC(=O)c1nc(-c2ccc(Cl)c3c2OCO3)c(F)c(N)c1Cl [Compound 1A, methyl 4-amino-3-chloro-6-(7-chlorobenzo[d][1,3]dioxol-4-yl)-5-fluoropicolinate]
- pest or weed control at 17.5 g/ha ([1]; 17.5 g ai/ha): 0%
- pest or weed control at 35 g/ha ([1]; 35 g ai/ha): 0%
- pest or weed control at 70 g/ha ([1]; 70 g ai/ha): 0%
- pest or weed control at 140 g/ha ([1]; 140 g ai/ha): 0%
- pest or weed control at 17.5 g/ha ([2]; 17.5 g ai/ha): 78%
- pest or weed control at 35 g/ha ([2]; 35 g ai/ha): 83%
- pest or weed control at 70 g/ha ([2]; 70 g ai/ha): 83%
- pest or weed control at 140 g/ha ([2]; 140 g ai/ha): 80%
- pest or weed control at 17.5 g/ha ([3]; 17.5 g ai/ha): 85%
- pest or weed control at 35 g/ha ([3]; 35 g ai/ha): 90%
- pest or weed control at 70 g/ha ([3]; 70 g ai/ha): 93%
- pest or weed control at 140 g/ha ([3]; 140 g ai/ha): 95%
- pest or weed control at 17.5 g/ha ([4]; 17.5 g ai/ha): 83%
- pest or weed control at 35 g/ha ([4]; 35 g ai/ha): 83%
- pest or weed control at 70 g/ha ([4]; 70 g ai/ha): 88%
- pest or weed control at 140 g/ha ([4]; 140 g ai/ha): 93%
- pest or weed control at 17.5 g/ha ([5]; 17.5 g ai/ha): 8%
- pest or weed control at 35 g/ha ([5]; 35 g ai/ha): 18%
- pest or weed control at 70 g/ha ([5]; 70 g ai/ha): 28%
- pest or weed control at 140 g/ha ([5]; 140 g ai/ha): 30%
- pest or weed control at 17.5 g/ha ([6]; 17.5 g ai/ha): 25%
- pest or weed control at 35 g/ha ([6]; 35 g ai/ha): 43%
- pest or weed control at 70 g/ha ([6]; 70 g ai/ha): 55%
- pest or weed control at 140 g/ha ([6]; 140 g ai/ha): 65%
- pest or weed control at 17.5 g/ha ([7]; 17.5 g ai/ha): 53%
- pest or weed control at 35 g/ha ([7]; 35 g ai/ha): 95%
- pest or weed control at 70 g/ha ([7]; 70 g ai/ha): 75%
- pest or weed control at 140 g/ha ([7]; 140 g ai/ha): 90%
- pest or weed control at 17.5 g/ha ([8]; 17.5 g ai/ha): 5%
- pest or weed control at 35 g/ha ([8]; 35 g ai/ha): 20%
- pest or weed control at 70 g/ha ([8]; 70 g ai/ha): 50%
- pest or weed control at 140 g/ha ([8]; 140 g ai/ha): 28%
- pest or weed control at 17.5 g/ha ([9]; 17.5 g ai/ha): 3%
- pest or weed control at 35 g/ha ([9]; 35 g ai/ha): 10%
- pest or weed control at 70 g/ha ([9]; 70 g ai/ha): 13%
- pest or weed control at 140 g/ha ([9]; 140 g ai/ha): 18%
- pest or weed control at 17.5 g/ha ([10]; 17.5 g ai/ha): 15%
- pest or weed control at 35 g/ha ([10]; 35 g ai/ha): 15%
- pest or weed control at 70 g/ha ([10]; 70 g ai/ha): 25%
- pest or weed control at 140 g/ha ([10]; 140 g ai/ha): 30%
- pest or weed control at 17.5 g/ha ([11]; 17.5 g ai/ha): 78%
- pest or weed control at 35 g/ha ([11]; 35 g ai/ha): 88%
- pest or weed control at 70 g/ha ([11]; 70 g ai/ha): 95%
- pest or weed control at 140 g/ha ([11]; 140 g ai/ha): 98%

Reference: patent publication US11718604B2, “4-amino-6-(1,3-benzodioxole)picolinates and their use as herbicides” (Dow AgroSciences LLC, priority 2018, dated 2023)
